Experimental data: patent US11521704B2, “Method for probing at least one binding site of a protein” (priority 2017, dated 2022)
Where two headings read alike, the source gives them in different places.

Tests used:
[1] = system: SF-2 wild-type HIV-1 protease; test: Cell-based replicon assay; conditions: Human immunodeficiency virus 1, cell-based replicon assays
Description: (§1) A diverse panel of 15 HIV-1 protease variants was chosen with a broad range of sequence substitutions containing single site mutants and more heavily mutated multi-drug resistant proteases (MDR-PRs). Both the SF-2 and NL4-3 wild-type (WT) proteases were used as controls for the variants in the panel. These two WT proteins shared 95% identity, varying at positions 7, 14, 41, 63 and 64 (FIG. 2). […] Table 1 is a listing of EC50 values for clinically-derived HIV-1 protease variants determined by cell-based assays at the Swanstrom laboratory at UNC-Chapel Hill, and fold changes relative to wild type NL4-3. The EC50 value for variant ATA21 could not be determined.

[2] = system: NL4-3 wild-type HIV-1 protease; test: Cell-based assay (Swanstrom laboratory); conditions: Human immunodeficiency virus 1, NL43
Description: as §1

[3] = system: clinically-derived HIV-1 protease variant KY26; test: Cell-based assay (Swanstrom laboratory); conditions: Human immunodeficiency virus 1
[4] = system: clinically-derived HIV-1 protease variant SLK19; test: Cell-based assay (Swanstrom laboratory); conditions: Human immunodeficiency virus 1
[5] = system: clinically-derived HIV-1 protease variant VEG23; test: Cell-based assay (Swanstrom laboratory); conditions: Human immunodeficiency virus 1
[6] = system: clinically-derived HIV-1 protease variant VSL23; test: Cell-based assay (Swanstrom laboratory); conditions: Human immunodeficiency virus 1

CC(C)CN(C[C@@H](O)[C@H](Cc1ccccc1)NC(=O)O[C@H]1CO[C@H]2OCC[C@H]21)S(=O)(=O)c1ccc(N)cc1 [DRV, Darunavir]
EC50 [1]: 4 nM | EC50 ([2]; NL4-3, cell-based replicon assays, read-out: EC50): 4 nM | EC50 ([2]; NL4-3 wild type, read-out: EC50 In): 3.98 nM | EC50 [3]: 1160 nM | EC50 [4]: 32.5 nM | EC50 [5]: 7.8 µM | EC50 [6]: 320 nM
